Laboratory results: patent publication US9518018B2, “3-alkoxy, thioalkyl and amino-4-amino-6-(substituted)picolinates and their use as herbicides” (Dow AgroSciences LLC, priority 2011, dated 2016)

Test system: desired test plant species
Assay: Foliar-applied postemergence herbicidal activity in direct seeded rice (Table 6)
Assay type: in vivo
Details: 21 DAA
Excerpt: Seeds or nutlets of the desired test plant species were planted in a soil matrix prepared by mixing a loam soil (43 percent silt, 19 percent clay, and 38 percent sand, with a pH of about 8.1 and an organic matter content of about 1.5 percent) and river sand in an 80 to 20 ratio. The soil matrix was contained in plastic pots with a surface area of 139.7 cm^2. When required to ensure good germination and healthy plants, a fungicide treatment and/or other chemical or physical treatment was applied. The plants were grown for 10-17 d in a greenhouse with an approximate 14-h photoperiod which was maintained at about 29° C. during the day and 26° C. during the night. Nutrients and water were added on a regular basis and supplemental lighting was provided with overhead metal halide 1000-Watt lamps as necessary. The plants were employed for testing when they reached the second or third true leaf stage. Treatments consisted of compounds 45, 34, and 66. Weighed amounts of technical compounds were placed in individual 25 mL glass vials and dissolved in 8 mL of 97:3 v/v acetone-DMSO to obtain stock solutions. […] The spray application solutions were prepared by removing 4 mL of the stock solution and diluting with 4 mL of 97:3 v/v acetone-DMSO and continued serial dilution to obtain 1⁄2×, 1⁄4×, 1⁄8×, and 1/16× rates of the high rate. Spray solutions were diluted to the appropriate final concentrations with the addition of 8 mL of an aqueous mixture of 1.875% (v/v) Agri-dex crop oil concentrate. The final 12-mL spray solutions each contained 1.25% (v/v) Agri-dex crop oil concentrate, 32.3% acetone, and 1.0% DMSO. Compound requirements are based upon a 12 mL application volume at a rate of 187 L/ha. Spray solutions were applied to the plant material with an overhead Mandel track sprayer equipped with […] nozzles calibrated to deliver 187 L/ha over an application area of 0.503 square meters (m^2) at a spray height of 18 inches ([…]) above average plant canopy height. Control plants were sprayed in the same manner with the solvent blank. The treated plants and control plants were placed in a greenhouse as described above and watered by sub-irrigation to prevent wash-off of the test compounds. After approximately 3 weeks, the condition of the test plants, compared with that of the untreated plants, was determined visually and scored on a scale of 0 to 100 percent where 0 corresponds to no injury and 100 corresponds to complete kill. By applying the well-accepted probit analysis as described by J. Berkson in Journal of the […], 48, 565 (1953) and by D. Finney in “Probit Analysis” Cambridge University Press (1952) or by plotting the mean data and fitting a logarithmic curve to the portion of the data where there was a dose response using Microsoft Excel®, the above data can be used to calculate GR50 and GR90 values, which are defined as growth reduction factors that correspond to the effective dose of herbicide required to kill or control 50 percent or 90 percent, respectively, of a target plant.

COC(=O)c1nc(-c2ccc(Cl)c(OC)c2F)c(F)c(N)c1OC [Compound 34]
Mean Visual Injury (%)-21 Days After Application AESSE (AESSE (Aeschynomene sensitiva, sensitive jointvetch), 4.38 g ae/ha): 100% | Mean Visual Injury (%)-21 Days After Application AESSE (AESSE (Aeschynomene sensitiva, sensitive jointvetch), 8.75 g ae/ha): 100% | Mean Visual Injury (%)-21 Days After Application AESSE (AESSE (Aeschynomene sensitiva, sensitive jointvetch), 17.5 g ae/ha): 100% | Mean Visual Injury (%)-21 Days After Application AESSE (AESSE (Aeschynomene sensitiva, sensitive jointvetch), 35 g ae/ha): 100% | Mean Visual Injury (%)-21 Days After Application AESSE (AESSE (Aeschynomene sensitiva, sensitive jointvetch), 70 g ae/ha): 100% | GR50 AESSE (AESSE (Aeschynomene sensitiva, sensitive jointvetch), dose to kill or control 50 percent): <4.38 g ae/ha | GR90 AESSE (AESSE (Aeschynomene sensitiva, sensitive jointvetch), dose to kill or control 90 percent): <4.38 g ae/ha | Mean Visual Injury (%)-21 Days After Application BRAPP (BRAPP (Brachiaria platyphylla, broadleaf signalgrass), 4.38 g ae/ha): 73% | Mean Visual Injury (%)-21 Days After Application BRAPP (BRAPP (Brachiaria platyphylla, broadleaf signalgrass), 8.75 g ae/ha): 77% | Mean Visual Injury (%)-21 Days After Application BRAPP (BRAPP (Brachiaria platyphylla, broadleaf signalgrass), 17.5 g ae/ha): 93% | Mean Visual Injury (%)-21 Days After Application BRAPP (BRAPP (Brachiaria platyphylla, broadleaf signalgrass), 35 g ae/ha): 92% | Mean Visual Injury (%)-21 Days After Application BRAPP (BRAPP (Brachiaria platyphylla, broadleaf signalgrass), 70 g ae/ha): 93% | GR50 BRAPP (BRAPP (Brachiaria platyphylla, broadleaf signalgrass), dose to kill or control 50 percent): <4.38 g ae/ha | GR90 BRAPP (BRAPP (Brachiaria platyphylla, broadleaf signalgrass), dose to kill or control 90 percent): 30.2 g ae/ha | Mean Visual Injury (%)-21 Days After Application CYPDI (CYPDI (Cyperus difformis, small-flower flatsedge), 4.38 g ae/ha): 87% | Mean Visual Injury (%)-21 Days After Application CYPDI (CYPDI (Cyperus difformis, small-flower flatsedge), 8.75 g ae/ha): 95% | Mean Visual Injury (%)-21 Days After Application CYPDI (CYPDI (Cyperus difformis, small-flower flatsedge), 17.5 g ae/ha): 100% | Mean Visual Injury (%)-21 Days After Application CYPDI (CYPDI (Cyperus difformis, small-flower flatsedge), 35 g ae/ha): 100% | Mean Visual Injury (%)-21 Days After Application CYPDI (CYPDI (Cyperus difformis, small-flower flatsedge), 70 g ae/ha): 100% | GR50 CYPDI (CYPDI (Cyperus difformis, small-flower flatsedge), dose to kill or control 50 percent): <4.38 g ae/ha | GR90 CYPDI (CYPDI (Cyperus difformis, small-flower flatsedge), dose to kill or control 90 percent): 5.8 g ae/ha | Mean Visual Injury (%)-21 Days After Application CYPES (CYPES (Cyperus esculentus, yellow nutsedge), 4.38 g ae/ha): 73% | Mean Visual Injury (%)-21 Days After Application CYPES (CYPES (Cyperus esculentus, yellow nutsedge), 8.75 g ae/ha): 73% | Mean Visual Injury (%)-21 Days After Application CYPES (CYPES (Cyperus esculentus, yellow nutsedge), 17.5 g ae/ha): 85% | Mean Visual Injury (%)-21 Days After Application CYPES (CYPES (Cyperus esculentus, yellow nutsedge), 35 g ae/ha): 95% | Mean Visual Injury (%)-21 Days After Application CYPES (CYPES (Cyperus esculentus, yellow nutsedge), 70 g ae/ha): 100% | GR50 CYPES (CYPES (Cyperus esculentus, yellow nutsedge), dose to kill or control 50 percent): <4.38 g ae/ha | GR90 CYPES (CYPES (Cyperus esculentus, yellow nutsedge), dose to kill or control 90 percent): 27.4 g ae/ha | Mean Visual Injury (%)-21 Days After Application CYPIR (CYPIR (Cyperus iria, rice flatsedge), 4.38 g ae/ha): 83% | Mean Visual Injury (%)-21 Days After Application CYPIR (CYPIR (Cyperus iria, rice flatsedge), 8.75 g ae/ha): 97% | Mean Visual Injury (%)-21 Days After Application CYPIR (CYPIR (Cyperus iria, rice flatsedge), 17.5 g ae/ha): 98% | Mean Visual Injury (%)-21 Days After Application CYPIR (CYPIR (Cyperus iria, rice flatsedge), 35 g ae/ha): 100% | Mean Visual Injury (%)-21 Days After Application CYPIR (CYPIR (Cyperus iria, rice flatsedge), 70 g ae/ha): 100% | GR50 CYPIR (CYPIR (Cyperus iria, rice flatsedge), dose to kill or control 50 percent): <4.38 g ae/ha | GR90 CYPIR (CYPIR (Cyperus iria, rice flatsedge), dose to kill or control 90 percent): 6.7 g ae/ha | Mean Visual Injury (%)-21 Days After Application ECHCG (ECHCG (Echinochloa crus-galli, barnyardgrass), 4.38 g ae/ha): 93% | Mean Visual Injury (%)-21 Days After Application ECHCG (ECHCG (Echinochloa crus-galli, barnyardgrass), 8.75 g ae/ha): 93% | Mean Visual Injury (%)-21 Days After Application ECHCG (ECHCG (Echinochloa crus-galli, barnyardgrass), 17.5 g ae/ha): 96% | Mean Visual Injury (%)-21 Days After Application ECHCG (ECHCG (Echinochloa crus-galli, barnyardgrass), 35 g ae/ha): 98% | Mean Visual Injury (%)-21 Days After Application ECHCG (ECHCG (Echinochloa crus-galli, barnyardgrass), 70 g ae/ha): 95% | GR50 ECHCG (ECHCG (Echinochloa crus-galli, barnyardgrass), dose to kill or control 50 percent): <4.38 g ae/ha | GR90 ECHCG (ECHCG (Echinochloa crus-galli, barnyardgrass), dose to kill or control 90 percent): <4.38 g ae/ha | Mean Visual Injury (%)-21 Days After Application ECHCO (ECHCO (Echinochloa colonum, junglerice), 4.38 g ae/ha): 70% | Mean Visual Injury (%)-21 Days After Application ECHCO (ECHCO (Echinochloa colonum, junglerice), 8.75 g ae/ha): 80% | Mean Visual Injury (%)-21 Days After Application ECHCO (ECHCO (Echinochloa colonum, junglerice), 17.5 g ae/ha): 92% | Mean Visual Injury (%)-21 Days After Application ECHCO (ECHCO (Echinochloa colonum, junglerice), 35 g ae/ha): 97% | Mean Visual Injury (%)-21 Days After Application ECHCO (ECHCO (Echinochloa colonum, junglerice), 70 g ae/ha): 98% | GR50 ECHCO (ECHCO (Echinochloa colonum, junglerice), dose to kill or control 50 percent): <4.38 g ae/ha | GR90 ECHCO (ECHCO (Echinochloa colonum, junglerice), dose to kill or control 90 percent): 18.6 g ae/ha | Mean Visual Injury (%)-21 Days After Application LEFCH (LEFCH (Leptochloa chinensis, Chinese sprangletop), 4.38 g ae/ha): 0% | Mean Visual Injury (%)-21 Days After Application LEFCH (LEFCH (Leptochloa chinensis, Chinese sprangletop), 8.75 g ae/ha): 17% | Mean Visual Injury (%)-21 Days After Application LEFCH (LEFCH (Leptochloa chinensis, Chinese sprangletop), 17.5 g ae/ha): 30% | Mean Visual Injury (%)-21 Days After Application LEFCH (LEFCH (Leptochloa chinensis, Chinese sprangletop), 35 g ae/ha): 40% | Mean Visual Injury (%)-21 Days After Application LEFCH (LEFCH (Leptochloa chinensis, Chinese sprangletop), 70 g ae/ha): 37% | GR50 LEFCH (LEFCH (Leptochloa chinensis, Chinese sprangletop), dose to kill or control 50 percent): >70 g ae/ha | GR90 LEFCH (LEFCH (Leptochloa chinensis, Chinese sprangletop), dose to kill or control 90 percent): >70 g ae/ha | Mean Visual Injury (%)-21 Days After Application ORYSA ‘Clearfield 171’ (ORYSA (Oryza sativa ‘Clearfield 171’, rice), 4.38 g ae/ha): 0% | Mean Visual Injury (%)-21 Days After Application ORYSA ‘Clearfield 171’ (ORYSA (Oryza sativa ‘Clearfield 171’, rice), 8.75 g ae/ha): 3% | Mean Visual Injury (%)-21 Days After Application ORYSA ‘Clearfield 171’ (ORYSA (Oryza sativa ‘Clearfield 171’, rice), 17.5 g ae/ha): 12% | Mean Visual Injury (%)-21 Days After Application ORYSA ‘Clearfield 171’ (ORYSA (Oryza sativa ‘Clearfield 171’, rice), 35 g ae/ha): 23% | Mean Visual Injury (%)-21 Days After Application ORYSA ‘Clearfield 171’ (ORYSA (Oryza sativa ‘Clearfield 171’, rice), 70 g ae/ha): 22% | GR50 ORYSA ‘Clearfield 171’ (ORYSA (Oryza sativa ‘Clearfield 171’, rice), dose to kill or control 50 percent): >70 g ae/ha | GR90 ORYSA ‘Clearfield 171’ (ORYSA (Oryza sativa ‘Clearfield 171’, rice), dose to kill or control 90 percent): >70 g ae/ha | Mean Visual Injury (%)-21 Days After Application ORYSA ‘Wells’ (ORYSA (Oryza sativa ‘Wells’, rice), 4.38 g ae/ha): 0% | Mean Visual Injury (%)-21 Days After Application ORYSA ‘Wells’ (ORYSA (Oryza sativa ‘Wells’, rice), 8.75 g ae/ha): 0% | Mean Visual Injury (%)-21 Days After Application ORYSA ‘Wells’ (ORYSA (Oryza sativa ‘Wells’, rice), 17.5 g ae/ha): 3% | Mean Visual Injury (%)-21 Days After Application ORYSA ‘Wells’ (ORYSA (Oryza sativa ‘Wells’, rice), 35 g ae/ha): 8% | Mean Visual Injury (%)-21 Days After Application ORYSA ‘Wells’ (ORYSA (Oryza sativa ‘Wells’, rice), 70 g ae/ha): 7% | GR50 ORYSA ‘Wells’ (ORYSA (Oryza sativa ‘Wells’, rice), dose to kill or control 50 percent): >70 g ae/ha | GR90 ORYSA ‘Wells’ (ORYSA (Oryza sativa ‘Wells’, rice), dose to kill or control 90 percent): >70 g ae/ha | Mean Visual Injury (%)-21 Days After Application SCPJU (SCPJU (Scirpus juncoides, Japanese bulrush), 4.38 g ae/ha): 100% | Mean Visual Injury (%)-21 Days After Application SCPJU (SCPJU (Scirpus juncoides, Japanese bulrush), 8.75 g ae/ha): 100% | Mean Visual Injury (%)-21 Days After Application SCPJU (SCPJU (Scirpus juncoides, Japanese bulrush), 17.5 g ae/ha): 100% | Mean Visual Injury (%)-21 Days After Application SCPJU (SCPJU (Scirpus juncoides, Japanese bulrush), 35 g ae/ha): 100% | Mean Visual Injury (%)-21 Days After Application SCPJU (SCPJU (Scirpus juncoides, Japanese bulrush), 70 g ae/ha): 100% | GR50 SCPJU (SCPJU (Scirpus juncoides, Japanese bulrush), dose to kill or control 50 percent): <4.38 g ae/ha | GR90 SCPJU (SCPJU (Scirpus juncoides, Japanese bulrush), dose to kill or control 90 percent): <4.38 g ae/ha | Mean Visual Injury (%)-21 Days After Application SEBEX (SEBEX (Sesbania exaltata, hemp sesbania), 4.38 g ae/ha): 100% | Mean Visual Injury (%)-21 Days After Application SEBEX (SEBEX (Sesbania exaltata, hemp sesbania), 8.75 g ae/ha): 100% | Mean Visual Injury (%)-21 Days After Application SEBEX (SEBEX (Sesbania exaltata, hemp sesbania), 17.5 g ae/ha): 100% | Mean Visual Injury (%)-21 Days After Application SEBEX (SEBEX (Sesbania exaltata, hemp sesbania), 35 g ae/ha): 100% | Mean Visual Injury (%)-21 Days After Application SEBEX (SEBEX (Sesbania exaltata, hemp sesbania), 70 g ae/ha): 100% | GR50 SEBEX (SEBEX (Sesbania exaltata, hemp sesbania), dose to kill or control 50 percent): <4.38 g ae/ha | GR90 SEBEX (SEBEX (Sesbania exaltata, hemp sesbania), dose to kill or control 90 percent): <4.38 g ae/ha
